According to patent US20240398828A1, “HETERO-ATOM CONTAINING COMPOUNDS AND USES THEREOF” (Kumquat Biosciences Inc., priority 2021, published 2024):
pIC50: −log10 of the molar value.

Tests used:
PTPN2 (i.e., TC-PTP) = molecular target: T1, PTPN2 (i.e., TC-PTP) (Homo sapiens, UniProt P17706); assay: Phosphatase activity assay (DiFMUP substrate), PTPN2; format: biochemical; conditions: compounds binned ≤1 uM or >1 uM
T1 sequence (P17706 1-415): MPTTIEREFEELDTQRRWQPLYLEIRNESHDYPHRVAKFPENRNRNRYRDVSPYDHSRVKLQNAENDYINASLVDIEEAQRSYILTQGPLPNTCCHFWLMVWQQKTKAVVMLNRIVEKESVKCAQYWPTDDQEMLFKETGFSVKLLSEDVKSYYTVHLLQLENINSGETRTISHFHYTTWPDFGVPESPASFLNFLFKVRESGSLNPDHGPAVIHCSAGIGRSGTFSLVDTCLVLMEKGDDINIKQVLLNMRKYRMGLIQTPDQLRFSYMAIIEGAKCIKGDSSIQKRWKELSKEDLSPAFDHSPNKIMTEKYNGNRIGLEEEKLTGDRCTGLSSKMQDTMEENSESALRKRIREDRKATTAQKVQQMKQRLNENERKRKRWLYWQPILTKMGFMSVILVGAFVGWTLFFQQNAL
Procedure: (§1) The selectivity and potency of a small molecule PTPN2 inhibitor as provided herein against one or more protein tyrosine phosphatase (PTP) enzymes, and specifically against PTPN2, is assessed in various ways. The one or more PTP enzymes comprise Mycobacterium protein tyrosine phosphatase A (mPTPA), Mycobacterium protein tyrosine phosphatase B (mPTPB), PTPN1 (i.e., PTP1B), PTPN2 (i.e., TC-PTP), PTPN22 (i.e., LYP), SHP-1, SHP-2, FAP-1, Meg2, HePTP, Laforin, VHX, VHR, LMWPTP, Cdc14A, LAR, CD45, PTPRG, a fragment thereof, a variant thereof, and a combination thereof. Selectivity and potency of a small molecule PTPN2 inhibitor is evaluated using a PTP activity inhibition assay. The assay is performed using a buffer comprising 50 mM HEPES buffer pH 7.5, 150 mM NaCl, 0.5 mM EDTA, 1 mM DTT, 0.001% Tween-20.
(§2) The assay is performed using a phosphated substrate, e.g., 10 mM 6,8-Difluoro-4-Methylumbelliferyl Phosphate (DIFMUP) that is stored at −20° C. Alternatively or in addition to, the assay is performed using other phosphated substrate (e.g., fluorescein diphosphate). Each PTP enzyme is diluted in the assay buffer
(§3) The assay can be carried out at room temperature in multiplate format, e.g., using 384 well plates. A small molecule PTPN2 inhibitor dissolved in DMSO at one of 10 concentrations from a serial dilution or DMSO alone for control is added to each well. A mixture of the assay buffer comprising PTP enzyme (e.g., 0.025 ng/ul PTPN2) is added to each well and mixed for approximately 2 minutes. The reaction is initiated by adding DiFMUP diluted in the assay buffer to a final concentration of approximately 45 μM DiFMUP in PTPN2 assay. For each PTP enzyme, DiFMUP is added at the Km (Michaelis constant) of the enzyme that had been independently determined. The phosphatase activity of the PTP enzyme is assessed by monitoring appearance of a fluorescent product (6,8-difluoro-7-hydroxyl-4-coumarin (DiFMU) from DiFMUP) continuously for about 15 to 30 minutes, using the INFINITE M1000Pro plate reader (Tecan) with excitation at 360 nm and emission at 450 nm (cutoff filter at 435 nm) for DiFMU. Each assay is performed at least in duplicate. The rate (e.g., the initial rate) of DiFMU formation is plotted against the concentration of the small molecule PTPN2 inhibitor, and the data is fitted (e.g., using a 4-parameter equation) to determine the inflection point of the fit as the IC50 of the small molecule PTPN2 inhibitor for a specific enzyme. Utilizing this assay, the ability of the compounds in Table 2 to inhibit PTPN2 and PTP1B has been assessed. Table 3 summarizes the IC50 values.

PTPN1 (i.e., PTP1B) = molecular target: T2, PTPN1 (i.e., PTP1B) (Homo sapiens, UniProt P18031); assay: Phosphatase activity assay (DiFMUP substrate), PTP1B; format: biochemical; conditions: compounds binned ≤1 uM or >1 uM
T2 sequence (P18031 1-435): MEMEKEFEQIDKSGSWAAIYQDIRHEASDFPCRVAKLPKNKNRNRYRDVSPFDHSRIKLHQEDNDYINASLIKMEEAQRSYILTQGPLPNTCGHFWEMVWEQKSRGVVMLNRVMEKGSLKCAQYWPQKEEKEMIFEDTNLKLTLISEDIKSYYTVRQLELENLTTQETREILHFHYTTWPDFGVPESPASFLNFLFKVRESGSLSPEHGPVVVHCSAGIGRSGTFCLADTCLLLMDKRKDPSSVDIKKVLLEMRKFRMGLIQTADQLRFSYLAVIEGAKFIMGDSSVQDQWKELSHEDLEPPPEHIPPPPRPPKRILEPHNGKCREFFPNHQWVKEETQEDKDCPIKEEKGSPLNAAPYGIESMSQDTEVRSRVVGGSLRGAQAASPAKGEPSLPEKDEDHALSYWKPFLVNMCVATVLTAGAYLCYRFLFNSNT
Procedure: as §1, §2, §3

SMILES | pIC50 (PTPN2 (i.e., TC-PTP)) | pIC50 (PTPN1 (i.e., PTP1B))
CN(C)CCn1cc(-c2ccc(O)c(N3CC(=O)NS3(=O)=O)c2F)cn1 [Compound 148, 5-(3-(1-(2-(dimethylamino)ethyl)-1H-pyrazol-4-yl)-2-fluoro-6-hydroxyphenyl)-1,2,5-thiadiazolidin-3-one 1,1-dioxide] | ≥ 6.00 | ≥ 6.00
CC(C)Cn1cc(-c2ccc(O)c(N3CC(=O)NS3(=O)=O)c2F)cn1 [Compound 149, 5-(2-fluoro-6-hydroxy-3-(1-isobutyl-1H-pyrazol-4-yl)phenyl)-1,2,5-thiadiazolidin-3-one 1,1-dioxide] | ≥ 6.00 | ≥ 6.00
O=C1CN(c2c(O)ccc(-c3ccc4ncccc4c3)c2F)S(=O)(=O)N1 [Compound 150, 5-(2-fluoro-6-hydroxy-3-(quinolin-6-yl)phenyl)-1,2,5-thiadiazolidin-3-one 1,1-dioxide] | ≥ 6.00 | ≥ 6.00
Nc1nc2c(-c3ccc(O)c(N4CC(=O)NS4(=O)=O)c3F)ccc(F)c2s1 [Compound 151, 5-(3-(2-amino-7-fluorobenzo[d]thiazol-4-yl)-2-fluoro-6-hydroxyphenyl)-1,2,5-thiadiazolidin-3-one 1,1-dioxide] | < 6.00 | ≥ 6.00
O=C1CN(c2c(O)ccc(-c3c(F)ccc4[nH]ncc34)c2F)S(=O)(=O)N1 [Compound 152, 5-(2-fluoro-3-(5-fluoro-1H-indazol-4-yl)-6-hydroxyphenyl)-1,2,5-thiadiazolidin-3-one 1,1-dioxide] | ≥ 6.00 | ≥ 6.00
CC(C)CCn1cc(-c2cc(F)c(O)c(N3CC(=O)NS3(=O)=O)c2)cn1 [Compound 153, 5-(3-fluoro-2-hydroxy-5-(1-isopentyl-1H-pyrazol-4-yl)phenyl)-1,2,5-thiadiazolidin-3-one 1,1-dioxide] | < 6.00 | ≥ 6.00
O=C1CN(c2c(O)ccc(-c3cnn(CCC4CCCOC4)c3)c2F)S(=O)(=O)N1 (centres unmarked) [Compound 154, 5-(2-fluoro-6-hydroxy-3-(1-(2-(tetrahydro-2H-pyran-3-yl)ethyl)-1H-pyrazol-4-yl)phenyl)-1,2,5-thiadiazolidin-3-one 1,1-dioxide] | ≥ 6.00 | ≥ 6.00
CC1C(=O)NS(=O)(=O)N1c1c(O)ccc(-c2cnn(Cc3cccc(F)c3)c2)c1F (centres unmarked) [Compound 155, 5-(2-fluoro-3-(1-(3-fluorobenzyl)-1H-pyrazol-4-yl)-6-hydroxyphenyl)-4-methyl-1,2,5-thiadiazolidin-3-one 1,1-dioxide] | ≥ 6.00 | ≥ 6.00
Cn1ncc2cc(-c3ccc(O)c(N4CC(=O)NS4(=O)=O)c3F)cnc21 [Compound 156, 5-(2-fluoro-6-hydroxy-3-(1-methyl-1H-pyrazolo[3,4-b]pyridin-5-yl)phenyl)-1,2,5-thiadiazolidin-3-one 1,1-dioxide] | ≥ 6.00 | ≥ 6.00
N#Cc1ccc(Cn2cc(-c3ccc(O)c(N4CC(=O)NS4(=O)=O)c3F)cn2)cc1F [Compound 157, 4-((4-(3-(1,1-dioxido-4-oxo-1,2,5-thiadiazolidin-2-yl)-2-fluoro-4-hydroxyphenyl)-1H-pyrazol-1-yl)methyl)-2-fluorobenzonitrile] | ≥ 6.00 | ≥ 6.00
O=C1CN(c2c(O)ccc(-c3c[nH]cn3)c2F)S(=O)(=O)N1 [Compound 158, 5-(2-fluoro-6-hydroxy-3-(1H-imidazol-4-yl)phenyl)-1,2,5-thiadiazolidin-3-one 1,1-dioxide] | ≥ 6.00 | ≥ 6.00
O=C1CN(c2c(O)ccc(-c3cnn(Cc4cccc(C(F)(F)F)c4)c3)c2F)S(=O)(=O)N1 [Compound 159, 5-(2-fluoro-6-hydroxy-3-(1-(3-(trifluoromethyl)benzyl)-1H-pyrazol-4-yl)phenyl)-1,2,5-thiadiazolidin-3-one 1,1-dioxide] | ≥ 6.00 | ≥ 6.00
O=C1CN(c2c(O)ccc(-c3cnn(C4CCCCC4)c3)c2F)S(=O)(=O)N1 [Compound 160, 5-(3-(1-cyclohexyl-1H-pyrazol-4-yl)-2-fluoro-6-hydroxyphenyl)-1,2,5-thiadiazolidin-3-one 1,1-dioxide] | ≥ 6.00 | ≥ 6.00
N#Cc1cccc(Cn2cc(-c3ccc(O)c(N4CC(=O)NS4(=O)=O)c3F)cn2)c1 [Compound 161, 3-((4-(3-(1,1-dioxido-4-oxo-1,2,5-thiadiazolidin-2-yl)-2-fluoro-4-hydroxyphenyl)-1H-pyrazol-1-yl)methyl)benzonitrile] | ≥ 6.00 | ≥ 6.00
O=C1CN(c2c(O)ccc(-c3ccnc(N4CCCC4)c3)c2F)S(=O)(=O)N1 [Compound 162, 5-(2-fluoro-6-hydroxy-3-(2-(pyrrolidin-1-yl)pyridin-4-yl)phenyl)-1,2,5-thiadiazolidin-3-one 1,1-dioxide] | ≥ 6.00 | ≥ 6.00
CC(C)CCNC1CCN(c2ccc(O)c(N3CC(=O)NS3(=O)=O)c2F)C1 (centres unmarked) [Compound 163, 5-(2-fluoro-6-hydroxy-3-(3-(isopentylamino)pyrrolidin-1-yl)phenyl)-1,2,5-thiadiazolidin-3-one 1,1-dioxide] | ≥ 6.00 | ≥ 6.00
Cc1n[nH]c(C)c1-c1ccc(O)c(N2CC(=O)NS2(=O)=O)c1F [Compound 164, 5-(3-(3,5-dimethyl-1H-pyrazol-4-yl)-2-fluoro-6-hydroxyphenyl)-1,2,5-thiadiazolidin-3-one 1,1-dioxide] | < 6.00 | < 6.00
CC(C)n1cnc(-c2ccc(O)c(N3CC(=O)NS3(=O)=O)c2F)c1 [Compound 165, 5-(2-fluoro-6-hydroxy-3-(1-isopropyl-1H-imidazol-4-yl)phenyl)-1,2,5-thiadiazolidin-3-one 1,1-dioxide] | ≥ 6.00 | ≥ 6.00
O=C1CN(c2c(O)ccc(-c3ccc(OCC4CC4)nc3)c2F)S(=O)(=O)N1 [Compound 166, 5-(3-(6-(cyclopropylmethoxy)pyridin-3-yl)-2-fluoro-6-hydroxyphenyl)-1,2,5-thiadiazolidin-3-one 1,1-dioxide] | ≥ 6.00 | ≥ 6.00
O=C1CN(c2c(O)ccc(-c3ccnc(OCC4CC4)c3)c2F)S(=O)(=O)N1 [Compound 167, 5-(3-(2-(cyclopropylmethoxy)pyridin-4-yl)-2-fluoro-6-hydroxyphenyl)-1,2,5-thiadiazolidin-3-one 1,1-dioxide] | ≥ 6.00 | ≥ 6.00
O=C1CN(c2c(O)ccc(-c3n[nH]c4ccccc34)c2F)S(=O)(=O)N1 [Compound 168, 5-(2-fluoro-6-hydroxy-3-(1H-indazol-3-yl)phenyl)-1,2,5-thiadiazolidin-3-one 1,1-dioxide] | < 6.00 | < 6.00
N#Cc1cc(Cn2cc(-c3ccc(O)c(N4CC(=O)NS4(=O)=O)c3F)cn2)ccc1F [Compound 169, 5-((4-(3-(1,1-dioxido-4-oxo-1,2,5-thiadiazolidin-2-yl)-2-fluoro-4-hydroxyphenyl)-1H-pyrazol-1-yl)methyl)-2-fluorobenzonitrile] | ≥ 6.00 | ≥ 6.00
